PMC10772362 (RSC Advances, 2024)
Where “and” joins values, the source holds several entries; their conditions need not be identical. Identical values can stand only once.

Assays:
[1] = test system: A549 (human lung adenocarcinoma) cell line; assay: MTT cytotoxicity assay, A549 cells; settings: for IC50: Homo sapiens, A549, 72 h, read-out: IC50, A549; for Selective index, A549: ratio IC50 in Hek-293 to IC50 in A549
[2] = test system: Hek-293 (human embryonic kidney 293) cell line; assay: MTT cytotoxicity assay, normal Hek-293 cells; settings: HEK293, 72 h, read-out: IC50, Hek-293
[3] = test system: KB (human mouth epidermal carcinoma) cell line; assay: MTT cytotoxicity assay, KB cells; settings: for IC50: Homo sapiens, KB, 72 h, read-out: IC50, KB; for Selective index, KB: ratio IC50 in Hek-293 to IC50 in KB
[4] = test system: MCF7 (human breast adenocarcinoma) cell line; assay: MTT cytotoxicity assay, MCF7 cells; settings: for IC50: Homo sapiens, MCF7, 72 h, read-out: IC50, MCF7; for Selective index, MCF7: ratio IC50 in Hek-293 to IC50 in MCF7
[5] = test system: HepG2 (human hepatocellular carcinoma) cell line; assay: MTT cytotoxicity assay, HepG2 cells; settings: for IC50: Homo sapiens, HepG2, 72 h, read-out: IC50, HepG2; for Selective index, HepG2: ratio IC50 in Hek-293 to IC50 in HepG2
[6] = test system: KB, A549, and HepG2 cell lines; assay: MTT cytotoxicity assay, summary over KB, A549 and HepG2; settings: Homo sapiens, read-out: IC50 values ranging over KB, A549, and HepG2 cell lines

SMILES | IC50 [1] | Selective index, A549 [1] | IC50 [2] | IC50 [3] | Selective index, KB [3] | IC50 [4] | Selective index, MCF7 [4] | IC50 [5] | Selective index, HepG2 [5] | IC50 [6] | fold higher toxicity when compared with ellipticine, KB [3] | fold higher toxicity when compared with ellipticine, HepG2 [5]
O=C1OCC2=C1C(c1ccco1)C1=C(N2)C(=O)c2ccccc2C1=O (stereo not drawn) [Compound 13c, 11-(Furan-2-yl)-4,11-dihydrobenzo[g]furo[3,4-b]quinolin-1,5,10(3H)-trione] | 3.06 ± 0.27 µM | 4.75 | 14.6 ± 1.35 µM | 14.2 ± 1.23 µM | 1.02 | 12.2 ± 1.14 µM | 1.20 | 3.75 ± 0.69 µM | 3.88 |  |  | 
Cc1c2ccncc2c(C)c2c1[nH]c1ccccc12 [Ellipticine, ellipticine, reference compound] | 1.42 ± 0.08 µM | 3.94 | 5.6 ± 0.37 µM | 1.95 ± 0.12 µM | 2.88 | 2.09 ± 0.16 µM | 2.68 | 2.11 ± 0.16 µM | 2.65 |  |  | 
COc1cc(C2C3=C(COC3=O)NC3=C2C(=O)c2ccccc2C3=O)ccn1 (stereo not drawn) [Compound 13k, 11-(2-Methoxypyridin-4-yl)-4,11-dihydrobenzo[g]furo[3,4-b]quinolin-1,5,10(3H)-trione] | 0.27 ± 0.21 µM | 9.30 | 2.48 ± 0.32 µM | 0.27 ± 0.24 µM | 9.30 | 1.34 ± 0.16 µM | 1.86 | 0.23 ± 0.02 µM | 10.81 | 0.23 to 0.27 µM |  | 
O=C1OCC2=C1C(c1ccn[nH]1)C1=C(N2)C(=O)c2ccccc2C1=O (stereo not drawn) [Compound 13j, 11-(1H-pyrazol-5-yl)-4,11-dihydrobenzo[g]furo[3,4-b]quinolin-1,5,10(3H)-trione] | 5.43 ± 0.39 µM | 0.69 | 3.75 ± 0.69 µM | 6 ± 0.63 µM | 0.63 | 3.24 ± 0.36 µM | 1.16 | 4.35 ± 0.57 µM | 0.86 |  |  | 
O=C1OCC2=C1C(c1cc3ccccc3s1)C1=C(N2)C(=O)c2ccccc2C1=O (stereo not drawn) [Compound 13g, 11-(Benzo[b]thiophen-2-yl)-4,11-dihydrobenzo[g]furo[3,4-b]quinolin-1,5,10(3H)-trione] | 3.13 ± 0.2 µM | 4.18 | 13.1 ± 1.7 µM | 9.94 ± 0.65 µM | 1.31 | 11.3 ± 1.78 µM | 1.16 | 12.7 ± 1.4 µM | 1.03 |  |  | 
O=C1OCC2=C1C(c1csc3ccccc13)C1=C(N2)C(=O)c2ccccc2C1=O (stereo not drawn) [Compound 13e, 11-(Benzo[b]thiophen-3-yl)-4,11-dihydrobenzo[g]furo[3,4-b]quinolin-1,5,10(3H)-trione] | 9.94 ± 0.73 µM | 1.12 | 11.2 ± 0.85 µM | 10.9 ± 1.4 µM | 1.02 | 13.1 ± 1.6 µM | 0.85 | 10.4 ± 1.18 µM | 1.07 |  |  | 
O=C1OCC2=C1C(c1ccc(Br)o1)C1=C(N2)C(=O)c2ccccc2C1=O (stereo not drawn) [Compound 13d, 11-(5-Bromofuran-2-yl)-4,11-dihydrobenzo[g]furo[3,4-b]quinolin-1,5,10(3H)-trione] | 2.06 ± 0.22 µM | 18.00 | 37.1 ± 3.3 µM | 2.81 ± 0.32 µM | 13.19 | 10.4 ± 1.29 µM | 3.58 | 0.3 ± 0.06 µM | 122 and 122.40 |  |  | 
O=C1OCC2=C1C(c1ccoc1)C1=C(N2)C(=O)c2ccccc2C1=O (stereo not drawn) [Compound 13b, 11-(Furan-3-yl)-4,11-dihydrobenzo[g]furo[3,4-b]quinolin-1,5,10(3H)-trione] | 3.09 ± 0.39 µM | 4.47 | 13.8 ± 1.41 µM | 10.1 ± 1.17 µM | 1.37 | 12.6 ± 1.14 µM | 1.09 | 12.4 ± 1.29 µM | 1.12 |  |  | 
O=C1OCC2=C1C(c1ncccc1F)C1=C(N2)C(=O)c2ccccc2C1=O (stereo not drawn) [Compound 13l, 11-(3-Fluoropyridin-2-yl)-4,11-dihydrobenzo[g]furo[3,4-b]quinolin-1,5,10(3H)-trione] | 2.15 ± 0.25 µM | 4.74 | 10.2 ± 1.24 µM | 4.69 ± 0.58 µM | 2.18 | 7.34 ± 0.94 µM | 1.39 | 5.52 ± 0.86 µM | 1.85 |  |  | 
Cc1c(C2C3=C(COC3=O)NC3=C2C(=O)c2ccccc2C3=O)cnn1C (stereo not drawn) [Compound 13i, 11-(1,5-Dimethyl-1H-pyrazol-4-yl)-4,11-dihydrobenzo[g]furo[3,4-b]quinolin-1,5,10(3H)-trione] | 2.27 ± 0.22 µM | 5.40 | 12.3 ± 1.13 µM | 10.7 ± 1.27 µM | 1.14 | 10.4 ± 0.8 µM | 1.18 | 7.8 ± 0.53 µM | 1.57 |  |  | 
O=C1OCC2=C1C(c1coc3ccccc13)C1=C(N2)C(=O)c2ccccc2C1=O (stereo not drawn) [Compound 13f, 11-(Benzofuran-3-yl)-4,11-dihydrobenzo[g]furo[3,4-b]quinolin-1,5,10(3H)-trione] | 7.02 ± 0.91 µM | 2.81 | 19.7 ± 1.7 µM | 1.1 ± 0.09 µM | 17.98 | 12.7 ± 1.2 µM | 1.56 | 1.3 ± 0.13 µM | 15.10 |  | ~1.8 fold | ~1.8 fold
O=C1OCC2=C1C(c1ccsc1)C1=C(N2)C(=O)c2ccccc2C1=O (stereo not drawn) [Compound 13a, 11-(Thiophen-3-yl)-4,11-dihydrobenzo[g]furo[3,4-b]quinolin-1,5,10(3H)-trione] | 0.48 ± 0.03 µM | 47.90 | 22.9 ± 2.18 µM | 1.43 ± 0.14 µM | 16.00 | 2.06 ± 0.66 µM | 11.12 | 1.43 ± 0.15 µM | 16.00 |  |  | 
O=C1OCC2=C1C(c1cnc(Cl)s1)C1=C(N2)C(=O)c2ccccc2C1=O (stereo not drawn) [Compound 13h, 11-(2-Chlorothiazol-5-yl)-4,11-dihydrobenzo[g]furo[3,4-b]quinolin-1,5,10(3H)-trione] | 0.16 ± 0.02 µM | 8.55 | 1.38 ± 0.18 µM | 1.12 ± 0.1 µM | 1.23 | 1.07 ± 0.1 µM | 1.29 | 0.81 ± 0.11 µM | 1.71 |  |  | 
COc1ncc(C(F)(F)F)cc1C1C2=C(COC2=O)NC2=C1C(=O)c1ccccc1C2=O (stereo not drawn) [Compound 13m, 11-(2-Methoxy-5-(trifluoromethyl)pyridin-3-yl)-4,11-dihydrobenzo[g]furo[3,4-b]quinolin-1,5,10(3H)-trione] | 2.83 ± 0.54 µM | 5.92 | 16.7 ± 1.94 µM | 4.63 ± 1.04 µM | 3.61 | 7.26 ± 1.29 µM | 2.31 | 5.83 ± 0.86 µM | 2.87 |  |  | 
